These results are taken from patent US6603062B1, “Method for producing transgenic plants with modified 5-aminolevulinic acid biosynthesis, method for identifying 5-aminolevulinic acid synthesis effectors” (Aventis CropScience GmbH, priority 1997, dated 2003).

Assay [1] concerns the target T1, recombinant Hordeum vulgare GSAAT (Hordeum vulgare, UniProt P18492).
T1 construct: The mature Hordeum vulgare GSAAT was produced recombinantly in Escherichia coli; made in house; host or cells: Escherichia coli TG1, expression plasmid pATE19 co-transformed with pGroESL
T1 sequence (P18492 35-469): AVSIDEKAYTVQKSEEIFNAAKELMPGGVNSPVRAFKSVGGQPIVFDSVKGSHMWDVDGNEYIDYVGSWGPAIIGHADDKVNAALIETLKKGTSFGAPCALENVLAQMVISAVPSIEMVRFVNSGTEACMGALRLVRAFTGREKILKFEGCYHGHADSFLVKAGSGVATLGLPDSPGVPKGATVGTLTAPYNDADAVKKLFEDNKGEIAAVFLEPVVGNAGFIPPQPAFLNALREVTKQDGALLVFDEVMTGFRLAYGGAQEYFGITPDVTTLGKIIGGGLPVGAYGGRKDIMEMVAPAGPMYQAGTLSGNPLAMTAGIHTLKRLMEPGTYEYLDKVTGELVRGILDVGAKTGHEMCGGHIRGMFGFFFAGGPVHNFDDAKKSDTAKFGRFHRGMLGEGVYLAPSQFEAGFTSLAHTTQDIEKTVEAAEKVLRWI
Description: GSAAT activity test (photometric detection of derivatized 5-aminolevulinic acid). The format is biochemical. As to conditions: pH 6.5, 20° C., read-out: concentration leading to a 50% reduction in GSAAT activity. The protocol:
GSAAT activity was detected by a photometric detection of the derivatized reaction product 5-aminolevulinic acid. The activity test was carried out in a 96-well flat-bottom microtiter plate (F form) made of polystyrene.
It was possible to carry out the desired number of individual measurements in parallel in the wells of the microtiter plate. The following information relates in each case to one well of the microtiter plate (MTP).
At a temperature of 20° C., 100 μl of enzyme solution (25 pkat/ml recombinant Hordeum vulgare GSAAT, 250 mM Bis Tris/HCl pH 6.5) and 10 μl of 25% (v/v) dimethyl sulfoxide in water were introduced into the well. […]
Immediately after the enzymatic reaction had started, the mixture was incubated for 30 minutes at 20° C. […] After the incubation had ended, the absorption of the solution was determined immediately at a wavelength of 540 nm with the aid of a microtiter plate photometer.
To determine the enzymatically formed quantity of 5-aminolevulinic acid, the blank value (see below) was first deducted from the absorption of the mixture to be analyzed. The difference between measured value and blank value was used for calculating, with the aid of a calibration series, the concentration of 5-aminolevulinic acid in the reaction mixture at the time immediately prior to addition of the ethyl acetoacetate. […]

The next assay deals with Lemna gibba. Put plainly: Lemna test. Particulars: 20 μM in culture solution. The format is in vivo. The protocol:
The phytotoxic action of GSAAT inhibitors was also determined in vivo by treating Lemna cultures.
To this end, Lemna gibba was cultured in sterile culture solution (0.4 g/l KNO3, 0.8 g/l CaCl2*2H2O, 0.366 g/l MgSO4*7H2O, 0.2 g/l KH2PO4, 2 ml/l solution I (2.23 g/l MnSO44H2O, 83 mg/l Kl, 2.5 mg/l CoCl2*6H2O, 0.86 g/l ZnSO4*7H2O, 2.5 mg/l CuSO4*5H2O, 0.62 g/l H3BO3, 25 mg/l Na2MoO4*2H2O) and 2 ml/l solution II(14.92 g/l Na-EDTA, 10.92 g/l FeSO4*7H2O)). In each case 3 plants were placed under sterile conditions into the a 100 ml Erlenmeyer flask which was filled with 50 ml culture solution containing the GSAAT inhibitor in a concentration of 20 μM. The culture flasks were illuminated at 25° C. with two 36 W daylight fluorescence tubes at a distance of 70 cm (24-hour light photoperiod). Growth and phenotype of the Lemna plants were observed over 7 days and compared with the growth and the phenotype of Lemna plants which had been grown in culture solution without inhibitor under otherwise identical conditions. It was characteristic of the phytotoxic effect of a GSAAT inhibitor that the newly-formed tissues were chlorotic. When light intensities were high, it was also possible for the plant tissue to become necrotic. Compounds with a rapid action frequently led to complete destruction of the plants after only one day, while the more slowly acting compounds first led to growth depression.

A further assay deals with untransformed maize line. Put plainly: Tolerance threshold of the untransformed maize line to the GSAAT inhibitor. The assay is classed as in vivo. Particulars: for wet weight of nontransgenic plants: six days after medium change, means of 10 plants without root and seed kernel remains. The protocol:
First, the tolerance threshold of the untransformed maize line over the GSAAT inhibitor 3-amino-2,3-dihydrobenzoic acid was determined. To this end, the maize seeds were surface-sterilized by washing them under sterile conditions first for 1 minute in 70% ethanol, then for 20 minutes in 5% sodium hypochlorite, 0.1% Tween 20 and subsequently six times briefly in sterile water. The seeds were then placed under sterile conditions on Murashige & Skoog medium (micro- and macronutrients, Sigma GmbH #M5524) containing 90 g/l sucrose and 8 g/l agar and grown for six days at room temperature under daylight fluorescent tubes in a 12-hour-light/12-hour-dark photoperiod until the second leaf emerged. At this stage, the plantlets were transferred to fresh medium with various concentrations of 3-amino-2,3-dihydrobenzoic acid.
After the plants had been grown for a further 10 days, the effect of the inhibitor was recorded. […] Six days after the medium was changed, the following wet weights were found for the nontransgenic plants (in each case means of 10 individual plants without root and remains of the seed kernel):
(§1) The tolerance of transgenic lines to 3-amino-2,3-dihydrobenzoic acid is determined in comparison with the nontransgenic original line. To this end, five regenerate plants per line whose size and root system visually corresponds to the above-described seedlings after six days germination are transferred to media without 3-amino-2,3-dihydrobenzoic acid (one plant) and with 100 μM 3-amino-2,3-dihydrobenzoic acid (four plants) and grown on.

For assay [2], the system named is transgenic maize lines with the ALAS gene. Description: Tolerance of transgenic maize lines with the ALAS (hemA) gene to the GSAAT inhibitor. The format is in vivo. As to conditions: 100 μM; compared with untreated controls on medium without inhibitor. The protocol: To produce transgenic maize plants which contain an expression cassette for Rhodobacter sphaeroides hemA gene, a transformation was carried out as described in EP-A 0 469 273, with the difference that pALAS3f was employed as the DNA to be transferred. 41 independent maize transformants were obtained. Amongst these lines termed M23T1, M25T1 to M25T13 and M27T1 to M27T27, plants were regenerated as described. The presence of the complete hemA gene was detected in all transgenic plants by means of PCR using the oligodeoxynucleotides ALAS1 and ALAS2 (see Example 1) as PCR primers.
as §1

A further assay deals with T2, GSAAT (Hordeum vulgare, UniProt P18492).
T2 sequence (P18492 35-469): T1 sequence (P18492 35-469)
Particulars: background, Beale (1990); cited from earlier work.

Where [3] appears, read: 100 μM, after a further 10 days.

Regarding `NNCCCS(=O)(=O)O` [compound A, hydrazinopropylsulfonic acid], in assay [1], the IC50 was determined as 6 µM. In the assay on Lemna gibba (after 72 hours), the “plants that had died” value is “over 60%”. Further, in the assay on Lemna gibba (within 48 hours), the “phytotoxic effect on Lemna plants” value was “chloroses and growth depression”.
`NC1C=CC=C(C(=O)O)C1` (stereo not shown) [3-amino-2,3-dihydrobenzoic acid]: the “wet weight of nontransgenic plants” value is 4.15 g in the assay with untransformed maize line (1 μM in medium), 3.82 g with untransformed maize line (5 μM in medium), 3.12 g in the assay on untransformed maize line (10 μM in medium) and 1.53 g with untransformed maize line (100 μM in medium). Also, the biomass production entry was “markedly reduced” in the assay on untransformed maize line (setting [3]) and “unaltered within the normal variations” in the assay with untransformed maize line (concentration under 5 μM, after a further 10 days). The “phenotype of newly-formed tissue” value with untransformed maize line (setting [3]) is “marked chlorosis”. For the same molecule, in the assay on untransformed maize line (100 μM, compared with the untreated control), the “phenotype of regenerated plants of the nontransgenic line” value is “marked chlorosis and reduced biomass production”. For the same molecule, the “phenotype of regenerated plants of most transgenic lines” value in assay [2] is listed as “none of the regenerated plants in the presence of 100 μM 3-amino-2,3-dihydrobenzoic acid shows chloroses or reduced growth”. Further, the “effect on GSAAT” value on GSAAT is given as “inhibited”.
